Reference: the supplement of paper PMC10307832

Key:
Assay in all cases: relative viability (nuclei count vs DMSO), 5 days (fraction); higher = more cells survive
[1] = compound: C1=CC(=CC=C1C2=CC(=C(S2)NC(=O)N)C(=O)N)F [TPCA-1] + CC1(C)CCC(c2ccc(Cl)cc2)=C(CN2CCN(c3ccc(C(=O)NS(=O)(=O)c4ccc(N[C@H](CCN5CCOCC5)CSc5ccccc5)c(S(=O)(=O)C(F)(F)F)c4)cc3)CC2)C1 [Navitoclax] (partner 0.5 µM)
Procedure, shortened: (§1)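 A single step with final 0.05% Triton X-100, 1% formaldehyde and 1 ug/ml Hoechst fixed the cells and stained nuclei 5 days after treatment. Lung cancer cell lines in 1536-well plates had been treated by pin tool the day after seeding with one drug alone or a fixed anchor-drug dose plus five library-drug doses (not always all listed) in √10 steps, and nuclei were counted on 4× images. Relative viability is the ratio of nuclei in treated wells to nuclei in vehicle wells, taken as the median of duplicate plates.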

[2] = compound: C[C@]12O[C@H](C[C@]1(O)CO)n1c3ccccc3c3c4c(c5c6ccccc6n2c5c31)CNC4=O [Lestaurtinib] + Nc1ncn([C@H]2C[C@H](O)[C@@H](CO)O2)c(=O)n1 [Decitabine] (partner 2 µM)
Procedure, shortened: as §1

[3] = compound: C[C@]12O[C@H](C[C@]1(O)CO)n1c3ccccc3c3c4c(c5c6ccccc6n2c5c31)CNC4=O [Lestaurtinib] + NC(=O)Nc1cc(-c2cccc(F)c2)sc1C(=O)N[C@H]1CCCNC1 [AZD7762] (partner 0.2 µM)
Procedure, shortened: as §1

[4] = compound: C[C@]12O[C@H](C[C@]1(O)CO)n1c3ccccc3c3c4c(c5c6ccccc6n2c5c31)CNC4=O [Lestaurtinib] + O=C(CCCCCCC(=O)Nc1ccccc1)NO [Vorinostat] (partner 1 µM)
Procedure, shortened: as §1

Cell Line | relative viability ([1]; first compound 0.04 µM) | relative viability ([1]; first compound 0.1265 µM) | relative viability ([1]; first compound 0.4 µM) | relative viability ([1]; first compound 1.265 µM) | relative viability ([1]; first compound 4 µM) | relative viability ([2]; first compound 0.005 µM) | relative viability ([2]; first compound 0.01581 µM) | relative viability ([2]; first compound 0.1581 µM) | relative viability ([2]; first compound 0.5 µM) | relative viability ([3]; first compound 0.005 µM) | relative viability ([3]; first compound 0.01581 µM) | relative viability ([3]; first compound 0.1581 µM) | relative viability ([3]; first compound 0.5 µM) | relative viability ([4]; first compound 0.005 µM) | relative viability ([4]; first compound 0.01581 µM) | relative viability ([4]; first compound 0.1581 µM) | relative viability ([4]; first compound 0.5 µM) | relative viability ([2]; first compound 0.05 µM) | relative viability ([3]; first compound 0.05 µM) | relative viability ([4]; first compound 0.05 µM)
NCI-H322M | 1.26 | 1.07 | 1.18 | 1.13 | 1.17 | 0.755 | 0.784 | 0.647 | 0.756 | 0.511 | 0.538 | 0.517 | 0.479 | 0.764 | 0.935 | 0.701 | 0.461 | – | – | –
NCI-H1792 | 0.714 | 0.622 | 0.677 | 0.621 | 0.279 | 0.485 | 0.567 | 0.543 | 0.256 | 0.758 | 0.669 | 0.387 | 0.174 | – | – | – | – | 0.336 | 0.556 | –
LXF-289 | 0.937 | 0.907 | 0.949 | 0.915 | 0.839 | 0.312 | 0.428 | 0.364 | 0.315 | 1.12 | 1.14 | 0.864 | 0.17 | 0.64 | 0.741 | 0.472 | 0.184 | 0.374 | 0.801 | 0.75
HCC-827 | 0.996 | 1.04 | 1.04 | 1 | 0.683 | 0.298 | 0.38 | 0.367 | 0.282 | 0.198 | 0.196 | 0.189 | 0.18 | 0.817 | 0.961 | 0.924 | 0.244 | 0.331 | 0.219 | 0.869
NCI-H520 | 1.17 | 0.96 | 1.1 | 0.977 | 1.08 | 0.62 | 0.59 | 0.327 | 0.247 | – | – | – | – | 0.68 | 0.675 | 0.371 | 0.211 | 0.502 | – | 0.632
SW 900 | – | – | – | – | – | 0.405 | 0.372 | 0.624 | 0.541 | 0.632 | 0.561 | 0.702 | 0.614 | 0.376 | 0.69 | 0.632 | 0.65 | 0.451 | 0.555 | 0.59
SK-MES-1 | 1.3 | 1.07 | 1.22 | 1.16 | 0.797 | 0.36 | 0.441 | 0.282 | 0.142 | – | – | – | – | 1.18 | 1.05 | 0.411 | 0.215 | 0.321 | – | 0.487
NCI-H2023 | 1.14 | 0.98 | 1.04 | 0.938 | 0.912 | 0.241 | 0.254 | 0.183 | 0.105 | – | – | – | – | 0.639 | 0.445 | 0.371 | 0.117 | 0.231 | – | 0.577
NCI-H1299 | 1.08 | 1.02 | 1.02 | 1.04 | 1.07 | – | – | – | – | – | – | – | – | – | – | – | – | – | – | –
NCI-H661 | – | – | – | – | – | 0.552 | 0.59 | 0.502 | 0.33 | – | – | – | – | 0.873 | 0.669 | 0.4 | 0.339 | 0.52 | – | 0.525
NCI-H1650 | 1.3 | 1.05 | 1.27 | 1.09 | 1.1 | 0.441 | 0.623 | 0.506 | 0.54 | – | – | – | – | 0.667 | 0.528 | 0.54 | 0.491 | 0.457 | – | 0.784
Calu-6 | 0.893 | 0.795 | 0.888 | 0.726 | 0.394 | – | – | – | – | – | – | – | – | – | – | – | – | – | – | –
NCI-H650 | – | – | – | – | – | 0.332 | 0.362 | 0.335 | 0.326 | 0.939 | 1.07 | 0.687 | 0.302 | 0.448 | 0.427 | 0.28 | 0.149 | 0.353 | 0.706 | 0.385
NCI-H1703 | 1.18 | 0.955 | 1.12 | 0.774 | 0.807 | – | – | – | – | 0.122 | 0.115 | 0.108 | 0.0966 | – | – | – | – | – | 0.107 | –
EBC-1 | 0.355 | 0.397 | 0.564 | 0.351 | 0.293 | – | – | – | – | – | – | – | – | – | – | – | – | – | – | –
NCI-H2342 | – | – | – | – | – | 0.713 | 0.76 | 0.722 | 0.77 | 0.473 | 0.51 | 0.583 | 0.407 | 0.776 | 0.767 | 0.915 | 0.743 | 0.742 | 0.469 | 0.752
COR-L23 | 1.28 | 0.953 | 1.03 | 1.03 | 0.733 | 0.487 | 0.511 | 0.354 | 0.153 | – | – | – | – | 0.618 | 0.433 | 0.212 | 0.115 | 0.384 | – | 0.294
SW 1573 | 1.14 | 0.866 | 0.916 | 0.962 | 0.948 | 0.562 | 0.601 | 0.352 | 0.103 | – | – | – | – | 0.767 | 0.864 | 0.424 | 0.198 | 0.45 | – | 0.488
NCI-H1648 | – | – | – | – | – | – | 0.535 | 0.762 | 0.512 | – | 1.47 | 0.977 | 0.644 | – | 0.543 | 0.807 | 0.29 | – | – | –
SK-LU-1 | 0.962 | 0.785 | 0.789 | 0.7 | 0.566 | 0.634 | 0.607 | 0.424 | 0.349 | – | – | – | – | 0.668 | 0.667 | 0.415 | 0.277 | 0.48 | – | 0.491
NCI-H522 | – | – | – | – | – | 0.683 | 0.71 | 0.652 | 0.537 | 0.944 | 0.778 | 0.744 | 0.479 | 0.964 | 1.13 | 0.785 | 0.474 | 0.811 | 0.842 | 0.895
A549 | 1.29 | 1.2 | 1.17 | 1.29 | 0.777 | 0.262 | 0.253 | 0.318 | 0.185 | – | – | – | – | – | – | – | – | 0.279 | – | –
LCLC-103H | – | – | – | – | – | 0.783 | 0.79 | 0.534 | 0.703 | 0.924 | 0.785 | 0.633 | 0.452 | 0.783 | 0.83 | 0.5 | 0.395 | 0.687 | 0.635 | 0.646
